“And” between values parts separate entries of the source, which are not always exact repeats. Identical values can stand only once.
Tests used:
PR5 = assay: Induction of PR5 (northern blot) by dicamba or DCSA; type: in vivo, soybean; settings: probe specific to PR5; procedures as for PR2
soybean seeds = assay: Soybean seed germination in DCSA solution; type: in vivo; set-up: key: 1—low; 2—moderate; 3—high; 3+—exceptionally high; settings: N=8
Description: Rapid seed germination is an important agronomic trait that reduces crop losses due to seed rot especially under cool wet conditions. Soybeans seeds of three varieties were germinated in a solution of 1, 10, or 100 μM DCSA or water at normal temperature (22° C.) or cool temperature (15° C.) and rated for seed germination at 1DAT (1 day after treatment) and 2DAT (2 days after treatment) at 22° C. or 4DAT (days after treatment) at 15° C. The germination rate was scored as 1—low, 2—moderate, 3—high for each treatment, 3+—exceptionally high, N=8.

[1] = system: wheat seed (spring wheat variety); assay: Wheat seed germination in DCSA solution; type: in vivo; set-up: key: 1—low; 2—moderate; 3—high; 3+—exceptionally high; settings: 22° C., 2DAT, water 1
Description: Wheat seed (spring wheat variety) was germinated in a solution of 0.1, 1, 10, 100, or 1000 μM DCSA or water at 22° C. and rated 2 DAT for germination using the same rating scale as used for soybean.

Meloidogyne incognita = assay: Control of cotton root knot nematode (RKN) by DCSA; type: in vivo
Description: DCSA was unexpectedly found to control RKN gall formation, improve plant height and reduce number of eggs produced by the nematode in cotton plants (ST474) (Table 5). Ten to fourteen days old cotton plants were treated with DCSA at the rate of 1 lb/A, 24 hrs before inoculating them with RKN eggs. […] Plant height, gall rating, and egg counts were measured 45 days after inoculation. The gall rating scale was 0-5 with 0=no visible galling and 5=heavy galling.

[2] = system: Verticillium (isolate DPL); assay: Verticillium wilt protection in cotton, isolate DPL; type: in vivo, Verticillium dahliae; settings: cotton ST6611, DCSA 1 lb/A, glyphosate 0.75 lb/A, 24 hours before inoculation
Description: (§1) DCSA was unexpectedly found to provide protection to cotton plants against Verticillium dahliae, causal agent of cotton wilt disease (Table 6). Cotton plants of the variety ST6611, BOLLGARD 2, ROUNDUP READY FLEX, were inoculated with a moderate isolate (DPL) or a virulent isolate (King) of Verticillium by a seedling dipping method. Seedlings at the first true leaf stage were taken out from the pots, one inch of roots were cut off, seedlings were dipped in a spore slurry for one minute, and then transplanted back in the pots. These strains were isolated and provided by Dr. Terry Wheeler (Texas A&M University, TX USA). DCSA was applied at the rate of 1 lb/A and glyphosate (ROUNDUP WEATHERMAX, Monsanto Company, St. Louis, Mo.) at the rate of 0.75 lb/A 24 hours before inoculation. Protection against Verticillium was measured on a disease severity scale of 1-9:1 being healthy and 9 being dead because of disease, and also was measured as the number of plants that survived out of 10 inoculated plants.

[3] = system: Xanthomonas campestris pv. malvacearum; assay: Bacterial blight inoculation of cotton plants after DCSA spray; type: in vivo; settings: two-week old cotton; DCSA spray 24 hours before tooth pick inoculation; unsprayed plants developed necrotic spots
Description: In this example, two-week old cotton plants were sprayed with DCSA while control plants received spray application of water only. The plants were inoculated with bacterial blight pathogen (Xanthomonas campestris pv. malvacearum) about 24 hours after the DCSA spray application using a tooth pick inoculation method. As shown in the FIG. 4, the cotton plants inoculated with the bacterial pathogen but not sprayed with DCSA developed necrotic spots, typical symptoms of bacterial blight. […] The results of this experiment indicate that DCSA application reduced bacterial infection on cotton plants when inoculated with bacterial pathogen 24 hours after the DCSA spray.

[4] = system: Verticillium (isolate King); assay: Verticillium wilt protection in cotton, isolate King; type: in vivo, Verticillium dahliae; settings: cotton ST6611, DCSA 1 lb/A, glyphosate 0.75 lb/A, 24 hours before inoculation
Description: as §1

[5] = individual cotton (ST474) plants 1-8, DCSA 1 lb/A 24 hrs before RKN eggs, 45 days after inoculation

With `O=C(O)c1c(Cl)ccc(Cl)c1O` [DCSA, 3,6-dichloro salicylic acid] the “induction of PR5” value (PR5) was “Induction of PR5”, the germination rating (soybean seeds; soybean Variety 1, 1 μM DCSA, 1DAT, 22° C.) was 1 and the germination rating (soybean seeds; soybean Variety 1, 1 μM DCSA, 2DAT, 22° C.) was 3. For the same compound, the germination rating (soybean seeds; soybean Variety 1, 1 μM DCSA, 4 DAT, 15° C.) was 1, the germination rating (soybean seeds; soybean Variety 1, 10 μM DCSA, 1DAT, 22° C.) was 1 and the germination rating (soybean seeds; soybean Variety 1, 10 μM DCSA, 2DAT, 22° C.) was 3. For the same compound, the germination rating (soybean seeds; soybean Variety 1, 10 μM DCSA, 4 DAT, 15° C.) was 3, the germination rating (soybean seeds; soybean Variety 1, 100 μM DCSA, 1DAT, 22° C.) was 3 and the germination rating (soybean seeds; soybean Variety 1, 100 μM DCSA, 2DAT, 22° C.) was 3+. The germination rating (soybean seeds; soybean Variety 1, 100 μM DCSA, 4 DAT, 15° C.) was 3, the germination rating (soybean seeds; soybean Variety 2, 1 μM DCSA, 1DAT, 22° C.) was 2 and the germination rating (soybean seeds; soybean Variety 2, 1 μM DCSA, 2DAT, 22° C.) was 3. For the same compound, the germination rating (soybean seeds; soybean Variety 2, 1 μM DCSA, 4 DAT, 15° C.) was 3, the germination rating (soybean seeds; soybean Variety 2, 10 μM DCSA, 1DAT, 22° C.) was 2 and the germination rating (soybean seeds; soybean Variety 2, 10 μM DCSA, 2DAT, 22° C.) was 3. The germination rating (soybean seeds; soybean Variety 2, 10 μM DCSA, 4 DAT, 15° C.) was 3, the germination rating (soybean seeds; soybean Variety 2, 100 μM DCSA, 1DAT, 22° C.) was 3 and the germination rating (soybean seeds; soybean Variety 2, 100 μM DCSA, 2DAT, 22° C.) was 3+. The germination rating (soybean seeds; soybean Variety 2, 100 μM DCSA, 4 DAT, 15° C.) was 3, the germination rating (soybean seeds; soybean Variety 3, 1 μM DCSA, 1DAT, 22° C.) was 2 and the germination rating (soybean seeds; soybean Variety 3, 1 μM DCSA, 2DAT, 22° C.) was 2. It also gave a germination rating (soybean seeds; soybean Variety 3, 1 μM DCSA, 4 DAT, 15° C.) of 3, a germination rating (soybean seeds; soybean Variety 3, 10 μM DCSA, 1DAT, 22° C.) of 2 and a germination rating (soybean seeds; soybean Variety 3, 10 μM DCSA, 2DAT, 22° C.) of 3. For the same compound, the germination rating (soybean seeds; soybean Variety 3, 10 μM DCSA, 4 DAT, 15° C.) was 2, the germination rating (soybean seeds; soybean Variety 3, 100 μM DCSA, 1DAT, 22° C.) was 1 and the germination rating (soybean seeds; soybean Variety 3, 100 μM DCSA, 2DAT, 22° C.) was 3. It also gave a germination rating (soybean seeds; soybean Variety 3, 100 μM DCSA, 4 DAT, 15° C.) of 1, a germination rating ([1]; 0.1 μM DCSA) of 1 and a germination rating ([1]; 1 μM DCSA) of 1. For the same compound, the germination rating ([1]; 10 μM DCSA) was 3, the germination rating ([1]; 100 μM DCSA) was 2 and the germination rating ([1]; 1000 μM DCSA) was 3. For the same compound, the “Egg Count/pot” value (Meloidogyne incognita; [5]) was 8,160 and 9,120 and 5,200 and 3,720 and 3,360 and 3,040 and 1,800 and 2,200, the “Plant Height (cm)” value (Meloidogyne incognita; [5]) was 25.4 cm (3×) and 22.2 cm and 17.8 cm and 14.0 cm and 15.9 cm and 12.7 cm and the “RKN Gall Rating (0-5)” value (Meloidogyne incognita; individual plants 1-8, 0=no visible galling, 5=heavy galling, 45 days after inoculation) was 0 (4×) and 2 and 1 (3×). For the same compound, the “RKN Gall Rating (0-5), Mean” value (Meloidogyne incognita; mean of 8 plants, RKN alone 2.6) was 0.6, the “Plant Height (cm), Mean” value (Meloidogyne incognita; mean of 8 plants, RKN alone 16.9) was 19.8 cm and the “Severity rating (1-9)” value ([2]; 1 healthy, 9 dead, inoculated check 5) was 1. The “Plant survival rating (out of 10)” value ([2]; inoculated check 8) was 10, the bacterial blight symptoms [3] was “only localized lesions (HR response) and no increase in bacterial blight symptoms” and the “Severity rating (1-9)” value ([4]; 1 healthy, 9 dead, inoculated check 9) was 2. For the same compound, the “Plant survival rating (out of 10)” value ([4]; inoculated check 0) was 10.

Source: patent US20130244875A1, “METHODS AND COMPOSITIONS FOR IMPROVING PLANT HEALTH” (priority 2006, published 2013)
